What all share (experiment): NCI anticancer screen, dose series, 48 h
For test [1], the system named is UO-31 renal.
The test system of test [2] is IGROV1 ovarian.
Test [3] concerns HT29 colon.
Test [4] deals with CCRF-CEM leukemia.
For test [5], the system named is SNB-19 CNS.
In test [6] the test system is SF-268 CNS.
Test [7] relates to NCI-H23 lung.
Test [8] deals with NCI-H460 lung.
The test system of test [9] is SF-539 CNS.
Test [10] concerns RPMI-8226 leukemia.

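Tested at 5 concentrations; 48 h exposure; 96-well plates; endpoints linearly interpolated, else capped at highest concentration. Here, GI50 denotes the concentration required for 50% inhibition of growth. At the TGI there is no net growth.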

On to `N#Cc1ncc(-c2ccc(C(F)(F)F)cc2)c(NC2CCCCCC2)n1`, for which the GI50 is 12 µM in test [1]; 38.8 µM in [2]; 9.35 µM in [3]; 9.97 µM in test [4]; 15.3 µM in test [5]; 27.7 µM in test [6]. Further, the GI50 in test [7] is 6.48 µM; in [8], 11.1 µM; in test [9] it was more than 100 µM; in test [10], 4.99 µM. Moreover, the TGI in [1], in test [2], in test [3], in [4], in test [5] and in test [6] was more than 100 µM in each case. Besides, the TGI in test [7], in test [8], in test [9] and in test [10] was more than 100 µM each time.
Regarding `COC(=O)NC1=Nc2ccccc2C(=O)NN1`, the TGI in test [1], in test [2], in test [3], in test [4], in [5] and in [6] was more than 100 µM throughout. In addition, the TGI in test [7], in test [8], in test [9] and in [10] was more than 100 µM throughout.
As for `CCc1nc(N)nc(N)c1-c1ccc(N2CCNCC2)c([N+](=O)[O-])c1`, the TGI in [1] was more than 100 µM; in test [2] it was more than 100 µM; in test [3] it was more than 100 µM; in test [4] it was more than 72.1 µM; in [5], more than 100 µM; in test [6], more than 37.5 µM. For the same compound, the TGI in test [7], in [8], in [9] and in test [10] was more than 100 µM each time.
`C=C(CC)C(=O)c1ccc(OCC(=O)O)c(Cl)c1Cl`: the TGI is 34.3 µM in [1]; 47.5 µM in test [2]; 36.3 µM in [3]; more than 76.3 µM in test [4]; 31.3 µM in test [5]; 33.1 µM in test [6]. Besides, the TGI in [7] is more than 56.2 µM; in [8], more than 69.9 µM; in test [9], 24.4 µM; in [10], more than 100 µM.
As for `CCOC(=O)C(Cc1ccccc1)n1c(O)c(/C=N/c2ncc(Cc3ccc(Cl)cc3Cl)s2)sc1=S` (stereo not given), the GI50 in test [1] was 1.97 µM; in test [2], 3.73 µM; in test [3] it was 2.24 µM; in test [4], 1.87 µM; in [5], 5.05 µM; in test [6] it was 2.42 µM. Further, the GI50 in test [7] was 1.9 µM; in test [8], 2.09 µM; in test [9], 2.58 µM; in test [10], 2.12 µM. For the same compound, the TGI was 5.31 µM in test [1]; 71.5 µM in test [2]; 7.7 µM in [3]; more than 100 µM in test [4]; more than 100 µM in [5]; 64.8 µM in test [6]. The TGI in [7] was 12.4 µM; in test [8] it was 12.4 µM; in test [9] it was 6.95 µM; in test [10], more than 100 µM.
With `Cc1cc2c(C(C)C)c(O)c(O)c(/C=N/O)c2c(O)c1-c1c(C)cc2c(C(C)C)c(O)c(O)c(/C=N/O)c2c1O`, the GI50 in [1] was 2.24 µM; in [2] it was 3.54 µM; in test [3], 3.19 µM; in test [4], 3.6 µM; in [5] it was 3.32 µM; in [6], 1.54 µM. For the same compound, the GI50 in test [7] was 1.92 µM; in test [8], 2.19 µM; in [9] it was 1.85 µM; in test [10] it was 2.44 µM. Also, the TGI came to 12.6 µM in [1]; 16 µM in test [2]; 12.5 µM in test [3]; 14.7 µM in test [4]; 23.5 µM in test [5]; 11.4 µM in test [6]. The TGI in test [7] was 5.74 µM; in [8] it was 6.72 µM; in test [9], 5.37 µM; in test [10] it was 15.4 µM.
Regarding `Oc1ccc(I)c2cccnc12`, the TGI in test [1] is 32.5 µM; in test [2] it was 39.3 µM; in [3], more than 100 µM; in [4], 9.68 µM; in test [5], more than 100 µM; in test [6], 72.1 µM. In addition, the TGI in test [7] was 55.2 µM; in test [8], 20.2 µM; in [9], more than 100 µM; in test [10] it was 62.9 µM.
As for `C=CCc1cc(OC)c(O)c(C(=O)/C=C/c2ccc(OC)c(OC)c2)c1`, the TGI in test [1] is 29.6 µM; in test [2], more than 100 µM; in test [3], 33.1 µM; in test [4], 56.4 µM; in test [5] it was 30.5 µM; in test [6] it was 53.1 µM. Also, the TGI in test [7] was 30.5 µM; in test [8] it was more than 100 µM; in test [9] it was 48.1 µM; in test [10], 3.31 µM.
With `C/C=C(/C)C(=O)OC1C=C(CO)C(=O)C(OC(=O)C2(C)OC2C)C1C(C)C` (stereo not given), the GI50 is 1.61 µM in test [1]; 1.99 µM in [2]; 1.66 µM in test [3]; 0.653 µM in test [4]; 2.33 µM in [5]; 2.46 µM in test [6]. Further, the GI50 was 2.09 µM in test [7], 2.93 µM in test [8], 1.86 µM in test [9] and 1.5 µM in [10]. Moreover, the TGI in test [1] is 2.96 µM; in test [2], 4.55 µM; in [3] it was 3.38 µM; in [4], 5.25 µM; in test [5] it was 5.87 µM; in [6], 6.32 µM. In addition, the TGI in test [7] was determined as 4.88 µM; in test [8], 8.27 µM; in [9], 3.38 µM; in test [10], 5.17 µM.

Source of the values: PubChem BioAssay (NCI).
